From patent US20230159453A1 (COCRYSTAL PHARMA, INC., priority 2020, published 2023)

Molecular target: SARS2 protease (Severe acute respiratory syndrome coronavirus 2, UniProt P0DTD1)
Experiment: SARS-CoV-2 protease inhibition assay (SARS2 FRET protease assay)
Assay type: biochemical
Conditions: SARS-CoV-2 protease 25 nM, FRET, peptide substrate 1.3 μM, 30 minutes at 30° C., compounds 20 μM to 1.0 nM; read-out: IC50

Work on `CC(C)C[C@H](NC(=O)OC1CCCC1Cc1cccc(Cl)c1)C(=O)N[C@@H](C[C@@H]1CCNC1=O)C(=O)NS(=O)(=O)C1CC1` (stereo partly drawn) [Compound C239, 2-(3-Chlorobenzyl) cyclopentyl ((S)-1-(((S)-1-(cyclopropanesulfonamido)-1-oxo-3-((S)-2-oxopyrrolidin-3-yl)propan-2-yl)amino)-4-methyl-1-oxopentan-2-yl) carbamate] yielded an IC50 of over 20000 nM.

Compound `CC(C)C[C@H](NC(=O)O[C@H](c1cccc(F)c1)C(C)(C)c1cccc(Cl)c1)C(=O)N[C@H](C=O)C[C@@H]1CCNC1=O` [Compound C269] has an IC50 of 70 nM.

`CC(C)C[C@H](NC(=O)OCC(C)(C)c1cccc(Cl)c1)C(=O)N[C@@H](C[C@@H]1CCNC1=O)C(=O)C(=O)NC1CC1` [Compound C87, 2-(3-Chlorophenyl)-2-methylpropyl ((S)-1-(((S)-4-(cyclopropylamino)-3,4-dioxo-1-((S)-2-oxopyrrolidin-3-yl)butan-2-yl)amino)-4-methyl-1-oxopentan-2-yl)carbamate] showed an IC50 of 700 nM.

`CC(=O)N1CCC2(CC1)CC(CC(C=O)NC(=O)[C@H](CC(C)C)NC(=O)OCC(C)(C)c1cccc(Cl)c1)C(=O)N2` (stereo partly drawn) [Compound C70, 2-(3-Chlorophenyl)-2-methylpropyl ((2S)-1-((1-(8-acetyl-2-oxo-1,8-diazaspiro[4.5]decan-3-yl)-3-oxopropan-2-yl)amino)-4-methyl-1-oxopentan-2-yl)carbamate] was tested, and the IC50 was 100 nM.

`CC(C)C[C@H](NC(=O)OC(c1ccccc1)C(C)(C)c1cccc(Cl)c1)C(=O)N[C@@H](C[C@@H]1CCNC1=O)C(=O)C(N)=O` (stereo partly drawn) [Compound C207, 2-(3-Chlorophenyl)-2-methyl-1-phenylpropyl ((S)-1-(((S)-4-amino-3,4-dioxo-1-((S)-2-oxopyrrolidin-3-yl)butan-2-yl)amino)-4-methyl-1-oxopentan-2-yl)carbamate] gave an IC50 of 315 nM.

`O=C[C@H](CCC(=O)N1CCOc2ccc(Cl)cc2C1)NC(=O)[C@H](CC1CCCCC1)NC(=O)OCc1cccc(Cl)c1` [Compound C15, 3-Chlorobenzyl ((S)-1-(((S)-5-(7-chloro-2,3-dihydrobenzo[f][1,4]oxazepin-4(5H)-yl)-1,5-dioxopentan-2-yl)amino)-3-cyclohexyl-1-oxopropan-2-yl)carbamate] gave an IC50 of over 200000 nM.

Work on `CCOP(=O)(OCC)C(O)[C@H](CCC(=O)N1CCOc2ccc(Cl)cc2C1)NC(=O)[C@H](CC1CCCCC1)NC(=O)OCc1cccc(Cl)c1` (stereo partly drawn) [Compound C9, 3-Chlorobenzyl ((2S)-1-(((2S)-5-(7-chloro-2,3-dihydrobenzo[f][1,4]oxazepin-4(5H)-yl)-1-(diethoxyphosphoryl)-1-hydroxy-5-oxopentan-2-yl)amino)-3-cyclohexyl-1-oxopropan-2-yl)carbamate] yielded an IC50 of over 200000 nM.
